The values below come from patent US10722575B2, “Use of 1,3-diphenylprop-2-en-1-one derivatives for treating liver disorders” (GENFIT, priority 2009, dated 2020).

SMILES strings stand for the structures. Marks after values point to notes of the source that are not given here.

In test [1] the test system is human primary hepatic stellate cells (hHSC). Description: PDGF-BB-induced hHSC proliferation, BrdU incorporation. The format is cell-based. The settings on record: 10 μM, PDGF-BB 10 ng/ml. As for the experimental part:
(§1) Compounds were dissolved in dimethyl sulfoxide (DMSO, Fluka cat #41640)
(§2) The human primary hepatic stellate cells (hHSC) (ScienCell) were cultured in STeCM medium (ScienCell cat #5301) that was supplemented with 2% fetal bovine serum (FBS, ScienCell cat #0010), 1% penicillin/streptomycine (ScienCell cat #0503) and stellate cell growth supplement (SteCGS; ScienCell cat #5352). Culture plastics were coated with Poly-L Lysine (Sigma cat # P4707).
hHSC were plated at a density of 1.2×10^4 cells/well into 96-well plates and were cultured overnight at 37° C. and 5% CO2, followed by washing of cells with PBS (Invitrogen cat #14190) and replacing the growth medium with a serum-free and SteCGS-free medium for an additional 24 hours. For PDGF-induced proliferation assay, cells were pre-treated with a compound of General Formula (I) for 1 hour before the addition of PDGF-BB (10 ng/ml; R&D Systems cat #520-BB). Treatments were then continued for additional 20 hours.
Cell proliferation was measured by bromodeoxyuridine (BrdU) incorporation using a BrdU labeling and detection kit (Roche cat #11647229001). BrdU labeling solution was added to cells, followed by incubation for another 4 hours before fixation, addition of nucleases, addition of anti-BrdU-POD and peroxidase substrate. The absorbance at 405 nm (with a reference wavelength at 690 nm) was measured using an ELISA plate reader (Tecan).

The test system is the same in test [2]. In words: TGFβ1-induced hHSC activation, gene expression by quantitative PCR. Format: cell-based. The settings on record: 10 μM, TGFβ1 1 ng/ml, 24 hours. As to the method: as §1, §2
The human primary hepatic stellate cells (hHSC) (ScienCell) were cultured under standard conditions, as described above. For experiments to determine gene expression patterns, hHSC were plated at a density of 7×10^4 cells/well into 24-well plates and were cultured overnight. Next day, culture medium was replaced by serum-free and SteCGS-free medium for an additional 16 hours. Cells were treated with a compound of General Formula (I) in addition to TGFβ1 (1 ng/ml) in a serum-free and SteCGS-free medium for 24 hours.
Total RNA was isolated using Nucleospin® 96 RNA kit (Macherey Nagel) following manufacturer's instructions. 100 ng of total RNA were reverse transcribed in cDNA using M-MLV RT (Moloney Murine Leukemia Virus Reverse Transcriptase) (Invitrogen cat #28025) in presence of RT buffer 1× (Invitrogen), 1 mM DTT (Invitrogen), 0.18 mM dNTPs (Promega), 200 ng pdN6 (Amersham) and 30U of RNase inhibitor (Promega).
Quantitative PCR was then carried out using the CFX96 TOUCH™ Real-Time PCR Detection System (Biorad). Briefly, PCR reactions were performed in 96 well plates on 5 μl of 5× diluted reverse transcription mix using the iQ SYBR Green Supermix kit. The experimental conditions were: 25 μl of volume reaction, 3 mM of MgCl2, and 0.5 μl each of reverse and forward primers (10 pMol).
Expression levels were normalized using the expression of 36B4 gene as reference (sequences SEQ ID NO: 1 and SEQ ID NO: 2 as shown above).
For each gene, the standard curves were drawn by selecting the best points (at least three points) in order to have PCR reaction efficiency close to 100% and a correlation coefficient close to 1. Expression levels were determined using the standard curve equation for both the housekeeping gene and the target gene (taking into account the specific PCR efficiency of each target gene).

Regarding `Cc1cc(C=CC(=O)c2ccc(OCCC3CCCCC3)cc2)cc(C)c1OC(C)(C)C(=O)O` [Cpd 11 WO2005073184, 1-(4-Cyclohexylethyloxyphenyl)-3-(4-carboxydimethylmethyloxy-3,5-dimethylphenyl)prop-2-en-1-one], the “Inhibition of the PDGF-BB-induced hHSC proliferation: BrdU Incorporation” value (shortened to “Inhibition … BrdU Incorporation”) in test [1] is −6%^. In test [2], the “Inhibition of the TGFβ1-induced hHSC activation: Col1α1” value (“Inhibition … Col1α1” for short) is on record as −66% **, the “Inhibition of the TGFβ1-induced hHSC activation: Col4α1” value (shortened to “Inhibition … Col4α1”) is −78% *** and the “Inhibition of the TGFβ1-induced hHSC activation: αSMA” value (“Inhibition … αSMA” below) was −92% ***.

Regarding `Cc1cc(C=CC(=O)c2ccc(Cl)cc2)cc(C)c1OC(C)(C)C(=O)O` [Cpd 17 WO2004OO5233, 1-[4-chlorophenyl]-3-[3,5-dimethyl-4-carboxydimethylmethyloxyphenyl]prop-2-en-1-one], the “Inhibition … BrdU Incorporation” value in test [1] is 6%. For the same molecule, in test [2], the “Inhibition … Col1α1” value was −29%, the “Inhibition … Col4α1” value is −56% *** and the “Inhibition … αSMA” value is given as −30% ***.

With `CCCCCCOc1ccc(C(=O)C=Cc2cc(C)c(OC(C)(C)C(=O)O)c(C)c2)cc1` [Cpd 33 WO2004OO5233, 1-[4-hexyloxyphenyl]-3-[3,5-dimethyl-4-carboxydimethylmethyloxyphenyl]prop-2-en-1-one], the “Inhibition … BrdU Incorporation” value in test [1] turned out to be 35%^. In addition, in test [2], the “Inhibition … Col1α1” value is reported as −58% *, the “Inhibition … Col4α1” value is recorded as −73% *** and the “Inhibition … αSMA” value is recorded as −71% ***.

With `Cc1cc(C=CC(=O)c2ccc(Oc3ccccc3)cc2)cc(C)c1OC(C)(C)C(=O)O` [Cpd 33 WO2005073184, 1-(4-Phenyloxyphenyl)-3-(4-carboxydimethylmethyloxy-3,5-dimethylphenyl)prop-2-en-1-one], in test [1], the “Inhibition … BrdU Incorporation” value is listed as −127% ***. In test [2], the “Inhibition … Col1α1” value was −37%, the “Inhibition … Col4α1” value was found to be 12% ^ and the “Inhibition … αSMA” value was −49% ***.

For the molecule `Cc1cc(C=CC(=O)c2ccc(Br)cc2)cc(C)c1OC(C)(C)C(=O)O` [Cpd 41 WO2004OO5233, 1-[4-bromophenyl]-3-[3,5-dimethyl-4-carboxydimethylmethyloxyphenyl]prop-2-en-1-one], in test [1], the “Inhibition … BrdU Incorporation” value is listed as −34%. Further, in test [2], the “Inhibition … Col1α1” value was −28%, the “Inhibition … Col4α1” value is −32% ** and the “Inhibition … αSMA” value is recorded as −2%.

Consider `Cc1cc(C=CC(=O)c2ccc(SC(F)(F)F)cc2)cc(C)c1OC(C)(C)C(=O)O` [Cpd 54 US20070032543, 1-[4-trifluoromethylthiophenyl]3-[3,5-dimethyl-4-carboxydimethymethyoxyphenyl]prop-2-en-1-one], for which, in test [1], the “Inhibition … BrdU Incorporation” value is reported as 12%^. For the same molecule, in test [2], the “Inhibition … Col1α1” value is listed as −27%, the “Inhibition … Col4α1” value is reported as −40% *** and the “Inhibition … αSMA” value is on record as −57% ***.

On to `CCc1cc(C=CC(=O)c2ccc(C(C)C)cc2)cc(CC)c1OC(C)(C)C(=O)O` [Cpd 56 US20070032543, 1-[4-isopropylphenyl]-3-[3,5-diethyl-4-carboxydimethylmethyloxyphenyl]prop-2-en-1-one], for which the “Inhibition … BrdU Incorporation” value in test [1] is on record as −127% ***. Moreover, in test [2], the “Inhibition … Col1α1” value was −62% **, the “Inhibition … Col4α1” value is given as −66% *** and the “Inhibition … αSMA” value was −87% ***.

As for `Cc1cc(C=CC(=O)c2ccc(C(F)(F)F)cc2)cc(C)c1OC(C)(C)C(=O)O` [Cpd 58 US20070032543, 1-[4-trifluoromethylphenyl]-3-[3,5-dimethyl-4-carboxydimethylmethyloxyphenyl]prop-2-en-1-one], in test [1], the “Inhibition … BrdU Incorporation” value is given as −5%^. Moreover, in test [2], the “Inhibition … Col1α1” value is reported as 55% *, the “Inhibition … Col4α1” value is on record as −3% and the “Inhibition … αSMA” value stood at 5%^.
